The target of one assay is T1, topoisomerase 1 (TOP1) (Homo sapiens, UniProt P11387).
T1 sequence (P11387 2-765): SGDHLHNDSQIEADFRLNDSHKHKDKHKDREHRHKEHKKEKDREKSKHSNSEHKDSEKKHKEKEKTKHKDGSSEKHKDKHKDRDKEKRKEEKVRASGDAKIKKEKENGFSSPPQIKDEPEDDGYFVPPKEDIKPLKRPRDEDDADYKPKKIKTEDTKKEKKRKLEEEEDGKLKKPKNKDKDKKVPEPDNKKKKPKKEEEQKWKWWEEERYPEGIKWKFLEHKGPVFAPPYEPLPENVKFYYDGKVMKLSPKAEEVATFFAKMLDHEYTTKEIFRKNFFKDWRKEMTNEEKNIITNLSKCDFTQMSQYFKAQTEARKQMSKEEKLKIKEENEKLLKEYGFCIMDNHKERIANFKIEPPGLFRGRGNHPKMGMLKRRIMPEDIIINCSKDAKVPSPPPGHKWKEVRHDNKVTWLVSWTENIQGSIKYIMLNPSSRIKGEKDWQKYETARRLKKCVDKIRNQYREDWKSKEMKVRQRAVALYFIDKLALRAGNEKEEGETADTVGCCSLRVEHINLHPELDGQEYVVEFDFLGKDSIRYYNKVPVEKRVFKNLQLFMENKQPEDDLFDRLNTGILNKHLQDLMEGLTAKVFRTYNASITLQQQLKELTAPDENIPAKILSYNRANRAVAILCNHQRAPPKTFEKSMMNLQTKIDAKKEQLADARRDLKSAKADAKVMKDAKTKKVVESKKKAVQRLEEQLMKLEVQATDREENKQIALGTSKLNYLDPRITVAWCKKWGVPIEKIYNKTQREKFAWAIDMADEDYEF
Description: REEAD cleavage-ligation assay with purified TOP1, […] CPT. In kind it is biochemical.

The target in assay [1] is tyrosyl-DNA phosphodiesterase 1 (TDP1) (Homo sapiens, UniProt Q9NUW8). Briefly: fluorescent hairpin DNA sensor (ATTO488/BHQ1) assay with purified human TDP1, 13-point dose response. In kind it is biochemical.

Where two headings read alike, the source gives them in different places.

tyrosyl-DNA phosphodiesterase 1 (TDP1), sequence (Q9NUW8 whole entry): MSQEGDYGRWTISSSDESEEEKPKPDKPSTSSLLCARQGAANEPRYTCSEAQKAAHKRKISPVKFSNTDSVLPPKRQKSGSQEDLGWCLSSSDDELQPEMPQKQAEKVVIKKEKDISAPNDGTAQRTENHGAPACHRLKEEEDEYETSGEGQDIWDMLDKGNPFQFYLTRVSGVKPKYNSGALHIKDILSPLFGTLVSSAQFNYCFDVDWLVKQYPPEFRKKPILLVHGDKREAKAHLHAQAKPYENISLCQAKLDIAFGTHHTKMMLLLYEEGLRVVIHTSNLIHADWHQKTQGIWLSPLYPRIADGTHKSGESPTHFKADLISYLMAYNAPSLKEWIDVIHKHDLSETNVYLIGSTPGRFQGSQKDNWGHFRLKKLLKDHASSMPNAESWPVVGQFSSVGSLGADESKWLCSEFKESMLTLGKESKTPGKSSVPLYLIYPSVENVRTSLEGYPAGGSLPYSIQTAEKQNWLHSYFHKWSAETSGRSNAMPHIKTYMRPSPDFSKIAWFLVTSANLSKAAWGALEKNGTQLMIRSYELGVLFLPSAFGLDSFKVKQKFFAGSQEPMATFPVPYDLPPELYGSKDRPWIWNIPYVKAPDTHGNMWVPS

Consider `CC[C@@]1(O)C(=O)OCc2c1cc1n(c2=O)Cc2cc3ccccc3nc2-1` [CPT, camptothecin], for which, at topoisomerase 1 (TOP1), the “REEAD cleavage-ligation assay with purified TOP1, 80 μM CPT” value is “CPT control is a positive control for TOP1 inhibition”.

For the molecule `COc1ccc(-c2cc(-c3ccc([N+](=O)[O-])cc3)nc3cccnc23)cc1` [NAF-15], the IC50 (commonly the concentration that gives 50% inhibition) in assay [1] (read-out: IC50) came to 37.8 µM.

Take `FC(F)(F)c1ccc(C2CC(c3ccccc3)c3cccc(P(=S)(c4ccccc4)c4ccccc4)c3N2)cc1` (stereo not shown) [PSTHQ-2]: the half-maximal inhibitory concentration (IC50) in assay [1] is 4.28 µM.

`O=[N+]([O-])c1ccc(C2CC(c3ccccc3)c3cccc(P(=S)(c4ccccc4)c4ccccc4)c3N2)cc1` (stereo not shown) [PSTHQ-13]: in assay [1], half-maximal inhibition (IC50) required 13.1 µM.

Values taken from article PMC8309759, “A Dual-Sensor-Based Screening System for In Vitro Selection of TDP1 Inhibitors” (Sensors (Basel, Switzerland), 2021).
